Experiments:
Assay type in all cases: cell-based, mouse
COX-2 = COX-2 expression in YAMC-B4 cells; settings: 6 h exposure
Method: (§1) To identify signaling pathways which could be involved in NRG4-stimulated cell survival, we exposed YAMC-B4 cells to NRG4 or EGF and prepared whole cell lysates for western blot analysis. […] Furthermore, COX-2 expression, which is induced by either HRG-1β or EGF after 6 h exposure, and is required for cell survival induced by ErbB4-EGFR dimers (Frey, M. R., Hilliard, V. C., Mullane, M. T., and Polk, D. B. (2010) Laboratory Investigation 90, 1415-1424), was not induced by NRG4. Thus, NRG4 promotes cell survival through pathways at least partly distinct from those activated by other ligands.

[1] = system: EGFR, ErbB2, ErbB3, and ErbB4; assay: ErbB receptor phosphorylation by western blot with phospho-specific antibodies; settings: YAMC-B4 cells (human ErbB4 construct); 10 min; HRG-1β 100 ng/ml, NRG4, EGF 10 ng/ml
From the text: Conditionally immortalized, non-transformed young adult mouse colon (YAMC) epithelial cells were provided by Dr. Robert Whitehead (Whitehead, R. H., VanEeden, P. E., Noble, M. D., Ataliotis, P., and Jat, P. S. (1993) Proc Natl Acad Sci USA 90, 587-591). These cells express low levels of endogenous ErbB4; YAMC-B4 cells expressing a human ErbB4 construct were generated as previously described (Frey, M. R., Edelblum, K. L., Mullane, M. T., Liang, D., and Polk, D. B. (2009) Gastroenterology 136, 217-226). […]
(§2) Cell lysates were extracted in modified RIPA buffer as previously described (Frey, M. R., Dise, R. S., Edelblum, K. L., and Polk, D. B. (2006) Embo J 25, 5683-5692), cleared by centrifugation, and boiled in Laemmli sample buffer. Samples were separated on SDS-polyacrylamide gels (6-10% as appropriate), blotted on PVDF membranes, and subjected to quantitative immunoblot using the Li-Cor Odyssey infrared detection system. Equal loading was monitored by immunoblots for actin and at least one additional protein.
Phosphorylation of EGFR, ErbB2, ErbB3, and ErbB4 was determined by western blot analysis of cell lysates using phospho-specific antibodies. […]

Akt = Akt phosphorylation in whole cell lysates by western blot; settings: YAMC-B4 cells; NRG4 100 ng/ml, 10 min
From the text: as §2, §1

YAMC-B4 cells [2] = assay: Cell migration/restitution (modified scratch) assay; settings: 8 h
Method: Cells grown on fibronectin-coated plates were subjected to multiple circular wounds with a rotating silicone probe as previously described (Corredor, J., Yan, F., Shen, C. C., Tong, W., John, S. K., Wilson, G., Whitehead, R., and Polk, D. B. (2003) American journal of physiology. Cell physiology 284, C953-961). Cultures were photographed immediately and 8 h after wounding; % closure was determined by measuring wounds in Image.
To test the potential effect of NRG4-ErbB4 signaling on cell motility, we used a modified scratch assay for restitution/migration (Corredor, J., Yan, F., Shen, C. C., Tong, W., John, S. K., Wilson, G., Whitehead, R., and Polk, D. B. (2003) American journal of physiology. Cell physiology 284, C953-961). Over an 8 h period, NRG4 had no effect on the rate at which YAMC-B4 cells moved into the denuded area of a culture plate (FIG. 4C), while in contrast EGF caused a 54% increase in migration over control.

YAMC-B4 cells [3] = assay: EdU proliferation assay; settings: 24 h stimulation
Method: Proliferative index in fixed colon specimens was assessed by immunohistochemical stain for Ki-67. In vitro, cells were exposed to vehicle or growth factors for 24 h, then labeled with 5-ethynyl-2-deoxyuridine (EdU) for 2 h and fixed. Nuclei were marked with DAPI, and incorporated EdU was detected using a Click-iT EdU kit (Invitrogen).
Most ErbB ligands stimulate multiple cellular processes, including proliferation and migration, in colon epithelial cells (Frey, M. R., Golovin, A., and Polk, D. B. (2004) J Biol Chem 279, 44513-44521). To determine if NRG4 is similarly broad in its cellular effects, we subjected YAMC-B4 cells to proliferation assays in the presence of NRG4. […] In vivo, the number of Ki67-positive nuclei per crypt in PBS vs. NRG4-injected mice was not altered 24 h post-injection (FIG. 4B).

ERK MAPK = ERK MAPK phosphorylation in whole cell lysates by western blot; settings: YAMC-B4 cells; NRG4 100 ng/ml, 10 min
From the text: as §2, §1

epidermal growth factor (NSYPGCPSSYDGYCLNGGVCMHIESLDSYTCNCVIGYSGDRCQTRDLRWWELR; Epidermal growth factor; UniProt P01132 977-1029, looked up) [EGF, Recombinant murine EGF from Peprotech; positive control for cell stimulation, reference compound]
COX-2 expression (COX-2): induced
phosphorylation of EGFR, ErbB2, ErbB3, and ErbB4 [1]: stimulated phosphorylation of multiple ErbBs
phosphorylation of Akt (Akt): activated both cascades
increase in migration over control (YAMC-B4 cells [2]): 54%
stimulation of proliferation over control (EdU) (YAMC-B4 cells [3]): 31.5%
phosphorylation of ERK MAPK (ERK MAPK): activated both cascades
